In publication PMC9944328 (Nature Communications, 2023):
Where two headings read alike, the source gives them in different places.

Test system: SSTR2 mutants
Test: NanoBiT β-arrestin 1 recruitment assay, HEK293 (SSTR2 mutants);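 for Best-fit values Bottom: percent of maximal wild-type response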;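 for Best-fit values Span: percent of maximal wild-type response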;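 for Best-fit values Top: percent of maximal wild-type response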;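 for Bottom (best-fit): percent of maximal wild-type response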;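 for Span (best-fit): percent of maximal wild-type response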;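 for Top (best-fit value): percent of maximal wild-type response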;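 for Top (best-fit): percent of maximal wild-type response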
Assay type: cell-based, human
Parameters: Bottom / Span / Bottom (best-fit) / Span (best-fit) / Best-fit values Bottom / Best-fit values Span / Bottom (best-fit value) / Span (best-fit value):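 percent of maximal wild-type response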
Method: The NanoBiT β-arrestin 1 recruitment assays were carried out according to the method described previously. […] Human full-length SSTR wild-type and mutant vectors were C-terminally fused with a 15-amino acid flexible linker and the small fragment (SmBiT). HEK293 cells were seeded into six-well microplates at a density of 1.0 × 10^6 cells/well and cultured for 24 h at 37 °C with 5% CO2. After that, cells were co-transfected with pcDNA3.1+ vectors encoding SSTR wild-type or mutants and human β-arrestin 1. After transfecting for 24 h, the transfected cells were suspended and seeded into white 96-well plates, and then cultured at 37 °C overnight. After that the medium in each well was exchanged for 90 μl of 0.01% bovine serum albumin containing 20 μl of 50 μM coelenterazine h (Carbosynth) diluted in the HBSS assay buffer and incubated for 40 min at room temperature. Then, ligands diluted in the assay buffer was added to each well and the luminescence intensity was measured using the Synergy H1 microplate reader and detected at room temperature in a time period. All data presented are means of at least three independent experiments.

[1] = D295A-1 (run 1), β-arrestin1 recruitment
[2] = D295A-2 (run 2), β-arrestin1 recruitment
[3] = D295A-3 (run 3), β-arrestin1 recruitment
[4] = L290A-1 (run 1), β-arrestin1 recruitment
[5] = L290A-2 (run 2), β-arrestin1 recruitment
[6] = L290A-3 (run 3), β-arrestin1 recruitment
[7] = S279A-1 (run 1), β-arrestin1 recruitment

Compound: C[C@@H](O)[C@@H]1NC(=O)[C@H](CCCCN)NC(=O)[C@@H](Cc2c[nH]c3ccccc23)NC(=O)[C@H](Cc2ccccc2)NC(=O)[C@@H](NC(=O)[C@H](N)Cc2ccccc2)CSSC[C@@H](C(=O)N[C@H](CO)[C@@H](C)O)NC1=O [octreotide]
- Bottom (best-fit value) [1]: 0.2059
- LogEC50 (best-fit value) [1]: -6.975
- Span (best-fit value) [1]: 90.14
- Top (best-fit value) [1]: 90.34
- EC50 (D295A-1 (run 1), β-arrestin1 recruitment, read-out: EC50 (best-fit value)): 106 nM
- Bottom (best-fit value) [2]: -0.553
- LogEC50 (best-fit value) [2]: -6.954
- Span (best-fit value) [2]: 94.35
- Top (best-fit value) [2]: 93.8
- EC50 (D295A-2 (run 2), β-arrestin1 recruitment, read-out: EC50 (best-fit value)): 111 nM
- Bottom (best-fit value) [3]: -6.587
- LogEC50 (best-fit value) [3]: -6.025
- Span (best-fit value) [3]: 251.8
- Top (best-fit value) [3]: 245.2
- EC50 (D295A-3 (run 3), β-arrestin1 recruitment, read-out: EC50 (best-fit value)): 944 nM
- Bottom (best-fit) (F127A-1): -1.151
- LogEC50 (best-fit) (F127A-1): -8.337
- Span (best-fit) (F127A-1): 58.78
- Top (best-fit) (F127A-1): 57.63
- EC50 (F127A-1, read-out: EC50 (best-fit)): 4.6 nM
- Bottom (best-fit) (F127A-2): -1.134
- LogEC50 (best-fit) (F127A-2): -8.363
- Span (best-fit) (F127A-2): 52.24
- Top (best-fit) (F127A-2): 51.1
- EC50 (F127A-2, read-out: EC50 (best-fit)): 4.33 nM
- Bottom (best-fit) (F127A-3): -1.083
- LogEC50 (best-fit) (F127A-3): -8.391
- Span (best-fit) (F127A-3): 50.21
- Top (best-fit) (F127A-3): 49.13
- EC50 (F127A-3, read-out: EC50 (best-fit)): 4.07 nM
- Bottom (best-fit) (F208A-1): -1.787
- LogEC50 (best-fit) (F208A-1): -6.773
- Span (best-fit) (F208A-1): 82.48
- Top (best-fit) (F208A-1): 80.69
- EC50 (F208A-1, read-out: EC50 (best-fit)): 169 nM
- Bottom (best-fit) (F208A-2): -1.774
- LogEC50 (best-fit) (F208A-2): -6.823
- Span (best-fit) (F208A-2): 91.81
- Top (best-fit) (F208A-2): 90.03
- EC50 (F208A-2, read-out: EC50 (best-fit)): 150 nM
- Bottom (best-fit) (F208A-3): -1.249
- LogEC50 (best-fit) (F208A-3): -6.77
- Span (best-fit) (F208A-3): 80.71
- Top (best-fit) (F208A-3): 79.46
- EC50 (F208A-3, read-out: EC50 (best-fit)): 170 nM
- β-arrestin recruitment of mutant (F294(7.35)A): nearly impaired the octreotide-induced β-arrestin recruitment
- β-arrestin signal of mutants (I284ECL3A and K291(7.32)A): reduced potency and efficacy of octreotide induced β-arrestin signal
- Bottom (best-fit value) [4]: 5.848
- LogEC50 (best-fit value) [4]: -8.723
- Span (best-fit value) [4]: 78.77
- Top (best-fit value) [4]: 84.62
- EC50 (L290A-1 (run 1), β-arrestin1 recruitment, read-out: EC50 (best-fit value)): 1.89 nM
- Bottom (best-fit value) [5]: 5.656
- LogEC50 (best-fit value) [5]: -8.77
- Span (best-fit value) [5]: 81.03
- Top (best-fit value) [5]: 86.69
- EC50 (L290A-2 (run 2), β-arrestin1 recruitment, read-out: EC50 (best-fit value)): 1.7 nM
- Bottom (best-fit value) [6]: -1.116
- LogEC50 (best-fit value) [6]: -8.203
- Span (best-fit value) [6]: 76.53
- Top (best-fit value) [6]: 75.41
- EC50 (L290A-3 (run 3), β-arrestin1 recruitment, read-out: EC50 (best-fit value)): 6.27 nM
- β-arrestin recruitment of mutant (N276(6.55)A): nearly abolished the recruitment of β-arrestin
- Best-fit values Bottom (P220A-1): 0.1149
- Best-fit values LogEC50 (P220A-1): -6.553
- Best-fit values Span (P220A-1): 34.49
- Best-fit values Top (P220A-1): 34.6
- EC50 (P220A-1, read-out: Best-fit values EC50): 280 nM
- Best-fit values Bottom (P220A-2): -0.6221
- Best-fit values LogEC50 (P220A-2): -7.989
- Best-fit values Span (P220A-2): 58.87
- Best-fit values Top (P220A-2): 58.25
- EC50 (P220A-2, read-out: Best-fit values EC50): 10.3 nM
- Best-fit values Bottom (P220A-3): -0.6988
- Best-fit values LogEC50 (P220A-3): -8.034
- Best-fit values Span (P220A-3): 50.86
- Best-fit values Top (P220A-3): 50.16
- EC50 (P220A-3, read-out: Best-fit values EC50): 9.24 nM
- Bottom (best-fit value) [7]: -1.308
- LogEC50 (best-fit value) [7]: -8.149
- Span (best-fit value) [7]: 94.92
